Test results reported in paper PMC5031918 (Journal of Antimicrobial Chemotherapy, 2016).
“Also recorded” adds a separate entry of the source. Where two headings read alike, the source gives them in different places.

Assays:
primary CD4+ T cells = experiment: Calcein accumulation/efflux in primary CD4+ T cells, flow cytometry; format: cell-based, human
[1] = target: T1, MRP1 (ABCC1), CEM-MRP1 cells (Homo sapiens, UniProt P33527); experiment: [3H]raltegravir cellular accumulation ratio; conditions: 30 min; for Effect of 100 μM cold drug (cis inhibitor) on [3H]raltegravir CAR: [3H]raltegravir 1 μM
T1 sequence (P33527 whole entry): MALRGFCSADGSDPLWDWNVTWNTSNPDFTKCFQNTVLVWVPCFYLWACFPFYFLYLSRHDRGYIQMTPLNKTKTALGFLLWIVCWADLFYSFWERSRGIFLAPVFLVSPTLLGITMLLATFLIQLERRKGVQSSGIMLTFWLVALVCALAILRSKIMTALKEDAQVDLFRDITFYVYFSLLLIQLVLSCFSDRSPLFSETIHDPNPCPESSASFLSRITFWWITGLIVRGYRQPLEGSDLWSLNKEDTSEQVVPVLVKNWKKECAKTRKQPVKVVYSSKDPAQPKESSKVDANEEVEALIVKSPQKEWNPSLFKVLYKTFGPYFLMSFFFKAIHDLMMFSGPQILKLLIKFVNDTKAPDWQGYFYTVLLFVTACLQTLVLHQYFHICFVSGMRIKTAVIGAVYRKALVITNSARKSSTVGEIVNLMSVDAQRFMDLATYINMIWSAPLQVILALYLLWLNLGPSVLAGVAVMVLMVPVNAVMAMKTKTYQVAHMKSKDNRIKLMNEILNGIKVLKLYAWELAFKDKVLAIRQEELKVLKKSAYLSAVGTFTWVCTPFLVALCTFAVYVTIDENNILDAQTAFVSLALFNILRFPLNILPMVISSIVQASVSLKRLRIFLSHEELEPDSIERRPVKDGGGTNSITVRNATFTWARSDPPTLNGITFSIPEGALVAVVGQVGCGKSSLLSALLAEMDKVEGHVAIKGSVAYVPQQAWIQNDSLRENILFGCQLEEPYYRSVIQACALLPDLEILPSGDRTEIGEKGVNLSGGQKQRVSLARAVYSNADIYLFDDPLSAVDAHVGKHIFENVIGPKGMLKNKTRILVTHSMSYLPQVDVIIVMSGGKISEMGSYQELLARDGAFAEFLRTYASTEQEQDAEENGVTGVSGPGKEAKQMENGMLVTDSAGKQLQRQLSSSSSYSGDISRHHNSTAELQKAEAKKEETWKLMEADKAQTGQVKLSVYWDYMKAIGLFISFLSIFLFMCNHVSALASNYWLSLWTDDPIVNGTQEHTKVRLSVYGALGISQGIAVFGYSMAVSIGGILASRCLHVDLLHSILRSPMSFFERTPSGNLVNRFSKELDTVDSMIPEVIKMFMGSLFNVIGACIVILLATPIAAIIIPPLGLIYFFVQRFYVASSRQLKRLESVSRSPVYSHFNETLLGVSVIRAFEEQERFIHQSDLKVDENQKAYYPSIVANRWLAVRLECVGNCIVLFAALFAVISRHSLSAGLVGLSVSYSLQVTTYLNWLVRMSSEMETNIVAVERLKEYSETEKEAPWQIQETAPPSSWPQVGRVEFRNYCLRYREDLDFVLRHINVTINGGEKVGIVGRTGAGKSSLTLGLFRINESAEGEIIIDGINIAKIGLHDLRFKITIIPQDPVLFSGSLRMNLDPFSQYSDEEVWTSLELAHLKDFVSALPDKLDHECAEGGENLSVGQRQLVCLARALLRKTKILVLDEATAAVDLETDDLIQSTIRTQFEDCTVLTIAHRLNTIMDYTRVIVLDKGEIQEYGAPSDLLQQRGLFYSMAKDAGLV

CEM-WT cells = experiment: [3H]raltegravir cellular accumulation ratio; format: in vitro ADME, human; conditions: 30 min; for Effect of 100 μM cold drug (cis inhibitor) on [3H]raltegravir CAR / CAR of raltegravir: [3H]raltegravir 1 μM; for Effect of efflux inhibitor on [3H]raltegravir CAR: MK571 100 μM, XR9051 10 μM or 1 μM (Figure 1a)
[2] = target: T1, MRP1 (ABCC1), CEM-MRP1 cells; experiment: [3H]ritonavir cellular accumulation ratio; format: in vitro ADME; conditions: for Increase of the CAR of [3H]ritonavir by 100 μM cold drug: [3H]ritonavir 1 μM, 30 min
CEM-WT (CEM-CCRF) cells = experiment: Calcein-AM fluorescence accumulation assay, flow cytometry, CEM-WT cells; format: cell-based, human; conditions: antiviral drug at 100 μM, calcein-AM 0.25 μM
[3] = target: T1, MRP1 (ABCC1), CEM-MRP1 cells; experiment: Calcein-AM fluorescence accumulation assay, flow cytometry, CEM-MRP1 cells; format: cell-based; conditions: antiviral drug at 100 μM, calcein-AM 0.25 μM
[4] = target: T2, P-gp (ABCB1), CEM-P-gp cells (Homo sapiens, UniProt P08183); experiment: [3H]raltegravir cellular accumulation ratio; format: in vitro ADME; conditions: 30 min
T2 sequence (P08183 whole entry): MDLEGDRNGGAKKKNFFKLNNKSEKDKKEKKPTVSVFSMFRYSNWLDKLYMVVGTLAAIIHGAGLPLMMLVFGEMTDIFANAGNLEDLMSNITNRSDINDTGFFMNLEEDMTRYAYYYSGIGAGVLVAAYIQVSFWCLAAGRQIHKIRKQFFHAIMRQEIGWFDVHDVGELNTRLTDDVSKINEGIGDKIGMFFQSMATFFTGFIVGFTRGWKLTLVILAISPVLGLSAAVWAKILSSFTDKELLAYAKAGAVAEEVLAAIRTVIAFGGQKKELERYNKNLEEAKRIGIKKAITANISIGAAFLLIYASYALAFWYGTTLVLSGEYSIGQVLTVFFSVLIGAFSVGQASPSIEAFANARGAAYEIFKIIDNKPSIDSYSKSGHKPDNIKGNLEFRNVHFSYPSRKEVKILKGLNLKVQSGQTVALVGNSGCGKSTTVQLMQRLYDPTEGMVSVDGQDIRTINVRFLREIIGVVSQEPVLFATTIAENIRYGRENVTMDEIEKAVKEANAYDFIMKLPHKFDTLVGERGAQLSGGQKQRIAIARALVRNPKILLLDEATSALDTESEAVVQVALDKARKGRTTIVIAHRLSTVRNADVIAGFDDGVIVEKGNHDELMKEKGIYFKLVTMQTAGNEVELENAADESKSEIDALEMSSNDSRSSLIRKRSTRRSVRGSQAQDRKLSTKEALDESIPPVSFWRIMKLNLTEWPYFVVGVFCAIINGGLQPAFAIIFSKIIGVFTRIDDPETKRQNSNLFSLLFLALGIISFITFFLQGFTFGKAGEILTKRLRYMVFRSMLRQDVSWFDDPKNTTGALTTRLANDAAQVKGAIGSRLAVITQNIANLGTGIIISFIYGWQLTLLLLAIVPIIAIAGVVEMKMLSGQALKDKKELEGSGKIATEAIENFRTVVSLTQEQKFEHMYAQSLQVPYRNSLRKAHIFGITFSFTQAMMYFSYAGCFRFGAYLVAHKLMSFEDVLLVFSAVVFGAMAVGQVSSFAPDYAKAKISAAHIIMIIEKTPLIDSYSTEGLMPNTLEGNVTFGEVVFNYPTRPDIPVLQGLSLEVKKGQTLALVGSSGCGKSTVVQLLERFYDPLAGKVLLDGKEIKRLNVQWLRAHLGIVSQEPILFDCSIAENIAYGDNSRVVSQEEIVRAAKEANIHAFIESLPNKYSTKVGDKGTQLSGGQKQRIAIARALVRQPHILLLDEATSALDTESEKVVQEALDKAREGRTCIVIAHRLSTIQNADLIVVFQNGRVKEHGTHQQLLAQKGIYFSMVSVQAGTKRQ

[5] = target: P-gp, primary CD3+CD4+ T cells (Homo sapiens, UniProt P08183); format: in vitro ADME; conditions: XR9051 1 μM, P = 0.017
P-gp, primary CD3+CD4+ T cells, sequence (P08183 whole entry): as above

[6] = target: T2, P-gp (ABCB1), CEM-P-gp cells; experiment: [3H]ritonavir cellular accumulation ratio; format: in vitro ADME; conditions: reversan 10 μM, P = 0.0021

With COc1ccc2c3c([nH]c2c1)[C@H](CC(C)C)N1C(=O)[C@H](CCC(=O)OC(C)(C)C)NC(=O)[C@@H]1C3 [Ko143] the “Inhibition of calcein accumulation” value (primary CD4+ T cells; primary CD4+ T cells, low doses (<1 μM) of Ko143, data not shown) was “null inhibition”.

CC(C)c1nc(CN(C)C(=O)N[C@H](C(=O)N[C@@H](Cc2ccccc2)C[C@H](O)[C@H](Cc2ccccc2)NC(=O)OCc2cncs2)C(C)C)cs1 [ritonavir] was tested, and the “Effect of 100 μM cold drug (cis inhibitor) on [3H]raltegravir CAR” value ([1]; CEM-MRP1) was “did not affect”, the “Effect of 100 μM cold drug (cis inhibitor) on [3H]raltegravir CAR” value (CEM-WT cells) was “did not affect” and the “Increase of the CAR of [3H]ritonavir by 100 μM cold drug” value [2] was 25%.

With CC(C)(C)NC(=O)[C@@H]1C[C@@H]2CCCC[C@@H]2CN1C[C@@H](O)[C@H](Cc1ccccc1)NC(=O)[C@H](CC(N)=O)NC(=O)c1ccc2ccccc2n1 [saquinavir] the “Fluorescence ratio (MFI treated/MFI mock cells), calcein” value (CEM-WT (CEM-CCRF) cells) was 0.77, the “Fluorescence ratio (MFI treated/MFI mock cells), calcein” value [3] was 3.94 and the “Effect of 100 μM cold drug (cis inhibitor) on [3H]raltegravir CAR” value ([1]; CEM-MRP1) was “did not affect”. The “Effect of 100 μM cold drug (cis inhibitor) on [3H]raltegravir CAR” value ([4]; CEM-P-gp, [3H]raltegravir 1 μM) was “significantly competed with raltegravir efflux” and the “Effect of 100 μM cold drug (cis inhibitor) on [3H]raltegravir CAR” value (CEM-WT cells) was “did not affect”.

In the case of XR9051, the “Effect of XR9051 on reduced [3H]raltegravir accumulation” value ([5]; CD3+CD4+P-gp^high cells) was “significantly reverse this effect”, the “Effect of XR9051 on reduced [3H]raltegravir accumulation” value ([5]; total unsorted PBMCs) was “could also be reversed” and the “Effect of efflux inhibitor on [3H]raltegravir CAR” value (from here on “Effect of efflux inhibitor”) ([1]; CEM-MRP1, MK571 100 μM, XR9051 10 μM) was “neither MK571 nor XR9051 affected”. The “Effect on activity of P-gp^high cells (calcein efflux)” value (primary CD4+ T cells; non-stimulated CD4+ cells, XR9051 1 μM during the 2 h efflux time) was “remarkably inhibited”, the “Effect of efflux inhibitor” value ([4]; CEM-P-gp, XR9051 10 μM or 1 μM (Figure 1a)) was “significantly increased accumulation” and the “Effect of efflux inhibitor” value (CEM-WT cells) was “did not significantly alter; also recorded: did not affect”.

CC(C)CN(C[C@@H](O)[C@H](Cc1ccccc1)NC(=O)O[C@H]1CCOC1)S(=O)(=O)c1ccc(N)cc1 [amprenavir] was tested, and the “Fluorescence ratio (MFI treated/MFI mock cells), calcein” value (CEM-WT (CEM-CCRF) cells) was 0.87 and the “Fluorescence ratio (MFI treated/MFI mock cells), calcein” value [3] was 3.49.

With CN(C)C(=O)CCSC(SCCC(=O)O)c1cccc(/C=C/c2ccc3ccc(Cl)cc3n2)c1 (stereo not shown) [MK571] the “Effect of efflux inhibitor” value (CEM-WT cells) was “did not affect”.

With Cc1ccnc2c1NC(=O)c1cccnc1N2C1CC1 [nevirapine] the “Fluorescence ratio (MFI treated/MFI mock cells), calcein” value (CEM-WT (CEM-CCRF) cells) was 0.92 and the “Fluorescence ratio (MFI treated/MFI mock cells), calcein” value [3] was 1.23.

O=C1Nc2ccc(Cl)cc2[C@@](C#CC2CC2)(C(F)(F)F)O1 [efavirenz] was tested, and the “Fluorescence ratio (MFI treated/MFI mock cells), calcein” value (CEM-WT (CEM-CCRF) cells) was 0.94 and the “Fluorescence ratio (MFI treated/MFI mock cells), calcein” value [3] was 4.38.

Cc1cccc(C)c1OCC(=O)N[C@@H](Cc1ccccc1)[C@@H](O)C[C@H](Cc1ccccc1)NC(=O)[C@H](C(C)C)N1CCCNC1=O [lopinavir] was tested, and the “Fluorescence ratio (MFI treated/MFI mock cells), calcein” value (CEM-WT (CEM-CCRF) cells) was 0.60 and the “Fluorescence ratio (MFI treated/MFI mock cells), calcein” value [3] was 4.20.

In the case of O=C(NCCCN1CCOCC1)c1cnn2c(-c3ccccc3)cc(-c3ccccc3)nc12 [reversan], the “Effect of reversan on reduced [3H]ritonavir accumulation” value [6] was “reversed in part” and the “Effect of reversan on reduced [3H]ritonavir accumulation” value ([2]; reversan 10 μM, P = 0.037) was “reversed in part”.

In the case of Cc1nnc(C(=O)NC(C)(C)c2nc(C(=O)NCc3ccc(F)cc3)c(O)c(=O)n2C)o1 [raltegravir], the “Effect of 100 μM cold drug (cis inhibitor) on [3H]raltegravir CAR” value ([1]; CEM-MRP1) was “no changes”, the “Reduction in intracellular raltegravir accumulation with respect to control CEM-WT cells” value ([1]; untreated CEM-MRP1) was greater than 30% and the “CAR raltegravir MRP1/CAR raltegravir WT” value ([1]; untreated cells, P < 0.0001) was 0.64. For the same molecule, the CAR of raltegravir ([4]; CEM-P-gp, [3H]raltegravir 1 μM, co-incubation with XR9051 1 μM, P = 0.0025) was 2.46 ± 0.10, the “Reduction in intracellular raltegravir accumulation with respect to CEM-WT” value ([4]; untreated CEM-P-gp) was 52% and the “CAR raltegravir P-gp/CAR raltegravir WT” value ([4]; untreated cells, P < 0.0001) was 0.48. For the same molecule, the “Effect of 100 μM cold drug (cis inhibitor) on [3H]raltegravir CAR” value (CEM-WT cells) was “no changes”, the CAR of raltegravir (CEM-WT cells; accumulation experiments (Figure 1b), normalized to 100%) was 3.04 ± 0.62 and the CAR of raltegravir (CEM-WT cells; time-course (Figure 1a)) was 3.12 ± 0.12. The “Increase of the CAR of [3H]ritonavir by 100 μM cold drug” value [2] was “did not inhibit”.

For CC(C)(C)NC(=O)[C@@H]1CN(Cc2cccnc2)CCN1C[C@@H](O)C[C@@H](Cc1ccccc1)C(=O)N[C@H]1c2ccccc2C[C@H]1O [indinavir], the “Fluorescence ratio (MFI treated/MFI mock cells), calcein” value (CEM-WT (CEM-CCRF) cells) was 1.28 and the “Fluorescence ratio (MFI treated/MFI mock cells), calcein” value [3] was 2.11.

For COC(=O)N[C@H](C(=O)N[C@@H](Cc1ccccc1)[C@@H](O)CN(Cc1ccc(-c2ccccn2)cc1)NC(=O)[C@@H](NC(=O)OC)C(C)(C)C)C(C)(C)C [atazanavir], the “Fluorescence ratio (MFI treated/MFI mock cells), calcein” value (CEM-WT (CEM-CCRF) cells) was 0.63 and the “Fluorescence ratio (MFI treated/MFI mock cells), calcein” value [3] was 2.54.
